Source: a melting point compilation (Tetko et al.)

Compound	melting point [°C]
Nc1ccc(=O)n(Cc2ccc(Cl)c(Cl)c2)c1	131 to 133
COC(=O)c1cc(S(=O)(=O)Cl)ccc1Br	89 to 91
CC(C)(C)c1ccc(S(N)(=O)=O)cc1	136 to 138
Cn1cc(/C=C/[N+](=O)[O-])cn1	127 to 129
O=C(O)c1cccc(NC(=O)c2ccc(Br)o2)c1	229 to 231
COC(=O)c1ccc(CS(N)(=O)=O)cc1	138 to 140
N#Cc1ccc2ncccc2c1	135 to 137
O=C(O)c1ccccc1NCc1ccco1	156 to 158
CCCCn1c(=O)[nH]c(=O)c2cc(C(=O)O)cnc21	216 to 218
O=C(NO)c1ccc(Br)s1	152 to 160
O=C(O)c1cc(C2CC2)on1	97 to 99
Oc1ccc(-c2noc(C3CCCO3)n2)cc1 (centres undefined)	96 to 98
Cc1cc(C(=O)CCl)c(C)n1-c1ccon1	87 to 89
COc1ccc(C(=O)NC(=O)CCl)cc1	160 to 162
Clc1cc(N2CCNCC2)ncn1	100 to 102
CC1CC(N)=NN1Cc1ccccc1 (centres undefined)	159 to 161
Nc1ncc(-c2cccc(Cl)c2)s1	143 to 145
CCCN(CCC)C(=O)c1cccc(C(=O)O)c1	94 to 96
Cc1cnn(-c2ccc(C(=O)O)cc2)c1	240 to 242
CC(C)CCC(=O)NCCCS(N)(=O)=O	90 to 92
COC(=O)C(Cc1c[nH]c2ccccc12)NC(=O)c1ccc2ccccc2c1 (centres undefined)	182 to 184
O=C(c1ccc(Cl)c(Cl)c1)C1CC1	29 to 31
COc1ccccc1N1C(=O)C=CC1=O	90 to 91
O=C(O)c1ccccc1-c1nc2ccccc2s1	190 to 192

Compound	melting point [°C]
COc1ccc(OC)c(C(C)NC(=O)C(C)Cl)c1 (centres undefined)	96 to 98
O=C(O)c1ccc(CSc2ccc(Cl)cc2)cc1	182 to 184
O=C(Nc1nc(C(F)(F)F)cs1)OCC(F)(F)F	78 to 80
O=C(O)C1CC1c1c(F)cccc1F (centres undefined)	89 to 91
COC(=O)C1CN(CC#N)CCO1 (centres undefined)	79 to 81
COc1cc(C#N)ccc1OCCCC(=O)O	146 to 148
O=C(O)C1CC(=O)N(C2CCCC2)C1 (centres undefined)	136 to 138
O=C(O)C1CCCN1C(=O)NC1CCCCC1 (centres undefined)	175 to 177
N#Cc1ccc(Oc2ccc(O)cc2)cc1	148 to 150
COCCNS(=O)(=O)c1ccc(Cl)c(C(=O)O)c1	142 to 144
O=C(O)C1CC1c1cccc2ccccc12 (centres undefined)	116 to 118
CC(Sc1ccc(Br)cc1)C(=O)O (centres undefined)	113 to 115
CC(=O)c1cnn(C)c1	51 to 53
COc1ccc2c(c1)C(=O)CCO2	44 to 46
C=CCN(CC(=O)O)S(=O)(=O)c1ccc(Cl)cc1	136 to 138
NS(=O)(=O)c1nc2ccccc2[nH]1	215 to 217
O/N=C(\Cc1nccn1C(F)F)c1ccccc1	150 to 152
O=C(O)C1CC(O)CN1C(=O)COc1ccccc1 (centres undefined)	157 to 159
O=C(O)CCNC(=O)c1ccc(Cl)cc1	167 to 169
O=C(O)c1ccc(S(=O)(=O)Cl)cc1Cl	133 to 135
O=C(CCl)Nc1nnc(-c2ccco2)o1	194 to 196
O=C(O)C1(C(=O)NC2CC2)CC1	145 to 147
Cc1c[nH]nc1[N+](=O)[O-]	183 to 185
CCOC(=O)Cc1nc2cc(C)c(C)cc2[nH]1	169 to 171

Compound	melting point [°C]
NC(=O)N1CCc2ccccc2C1	170 to 172
O=C(O)c1cccc(Oc2ccc(Cl)cc2)c1	164 to 166
CCNS(=O)(=O)c1cc(F)ccc1F	68 to 70
O=C(Nc1cccc([N+](=O)[O-])c1)OCC(F)(F)F	98 to 100
CCOC(=O)c1cc(C)nc2c(C(N)=O)cnn12	198 to 200
CC1CCCC(C)N1C(=O)CCl (centres undefined)	71 to 73
O=C1CC(C2CCCCN2)CN1 (centres undefined)	62 to 64
Cc1nc2c(cnn2C(C)C)cc1C(=O)O	166 to 168
Nc1ccc(Cl)cc1C(O)c1ccccc1 (centres undefined)	105 to 107
CC1(c2cc(F)ccc2F)NC(=O)NC1=O (centres undefined)	227 to 229
O=C(NC1CC1)c1cc(Br)c[nH]1	144 to 146
CNC(=O)c1cnc(C)[nH]c1=O	319 to 321
Cc1nc(Cl)c2c3c(sc2n1)CC(C)CC3 (centres undefined)	89 to 91
O=Cc1c[nH]nc1-c1cccnc1	208 to 210
CC(C)c1nn(C)c2sc(C(=O)O)cc12	209 to 211
Cc1ccc(NC(=O)CO)cc1	139 to 141
C=CCNC(=O)c1cccnc1Cl	75 to 77
Nc1nc2c(C(F)(F)F)cccc2s1	48 to 50
CCn1c(CCC(=O)O)nc2cc(S(=O)(=O)N(C)C)ccc21	186 to 188
O=C(CCl)N1CCOC2CCCCC21 (centres undefined)	67 to 69
CCOC(=O)C1CCCNC1=O (centres undefined)	80 to 82
CSc1snc(O)c1C#N	230 to 232
COc1ccc([N+](=O)[O-])cc1NS(=O)(=O)c1ccc(Cl)c(C(=O)O)c1	221 to 223
COC(=O)C(NS(C)(=O)=O)C(C)C (centres undefined)	46 to 48

Compound	melting point [°C]
CCOC(=O)c1c(C)oc2ccc(O)cc12	136 to 138
CS(=O)(=O)Cc1ccc(C(=O)O)cc1	253 to 255
Nc1[nH]ncc1CCCO	88 to 90
O=C1CCCS(=O)(=O)C1	141 to 143
CC(C)c1cc(C(=O)O)nn1-c1ccccn1	146 to 148
COc1cc(C(N)=S)ccn1	117 to 119
CCc1[nH]ncc1C(=O)O	229 to 231
CC1CCC2C(=O)N(C)C(=O)C2C1C(=O)O (centres undefined)	151 to 153
O=C(O)c1sccc1SC(F)F	117 to 119
CCOC(=O)c1cnn2cc(Br)cnc12	141 to 143
N#CCC(=O)c1c[nH]c2cc(Cl)ccc12	293 to 295
Cn1c(-c2ccccn2)cccc1=O	66 to 68
CC(=O)N1CCC(NC(=O)OCC(F)(F)F)CC1	115 to 124
NC(=O)NC(C(=O)O)c1ccccc1 (centres undefined)	201 to 203
CN(CC(N)=S)C(=O)c1ccccc1	149 to 151
Cn1cc(Br)cc1C(=O)NN	169 to 171
CCn1c(=O)c(C(=O)CCl)c(N)n(Cc2ccccc2)c1=O	115 to 117
O=C(O)c1cccc(Cl)c1O	173 to 175
COc1ccc(C(N)C(=O)O)cc1 (centres undefined)	232 to 234
CCOc1cc(N2CCC(O)CC2)ccc1[N+](=O)[O-]	109 to 111
O=C1CC(=O)Nc2cc(S(=O)(=O)Cl)ccc2N1	253 to 255
CCOc1cc(C(=O)O)c(N)cc1OC	185 to 187
CC(C)(C)n1cc(N)cn1	56 to 58
Nc1c(-c2ccccc2)ncn1C1CC1	148 to 150

Compound	melting point [°C]
CC1(O)CN(C(=O)OC(C)(C)C)C1	89 to 91
CC(C)(C(=O)O)n1cc([N+](=O)[O-])cn1	121 to 123
CC(=O)Nc1ccc(C(=O)C(C)Cl)cc1 (centres undefined)	190 to 193
O=C(O)CCc1nnc(-c2ccc(Cl)cc2)o1	159 to 161
Cc1csc2ccc(Cl)cc2c1=O	109 to 111
COc1ccc(-c2csc(NC(=O)CCl)n2)c(OC)c1	109 to 111
Cc1cccc(NS(=O)(=O)c2cc(C(=O)O)c(Cl)cc2Cl)c1	172 to 174
C#CCNS(=O)(=O)c1ccc(C(=O)O)cc1	149 to 151
Cc1ccc(C#N)c(Sc2ccccc2)c1	59 to 61
O=C(O)COc1ccc2oc3c(c2c1)CCCC3	188 to 190
CC(C)n1[nH]c(-c2ccc(F)cc2)cc1=O	156 to 158
OC(c1cnn(-c2ccccc2)c1)C(F)(F)F (centres undefined)	77 to 79
O=C(CCl)c1sccc1Br	75 to 77
NC(=O)c1c[nH]nn1	256 to 258
COc1cc(C=C2CCCc3c2nc2ccccc2c3C(=O)O)cc(OC)c1OC	249 to 251
COc1ccc(C2C(C(=O)O)CC(=O)N2C)cc1 (centres undefined)	183 to 185
Cc1cc(N)n(N)c(=O)c1	193 to 195
Cc1cc(C(=O)O)c2cnn(C)c2n1	284 to 286
Oc1cccc(Oc2ncccn2)c1	192 to 194
NC(=O)c1cc(N)cc(C(N)=O)c1	246 to 248
CC(C)C(NC(=O)Cc1ccccc1)C(=O)O (centres undefined)	110 to 112
O=C(O)c1cc(F)c(O)c(F)c1	160 to 162
COCCc1noc(-c2cc(Cl)ccc2N)n1	93 to 95
CC(=O)Nc1ccc(N)c(Br)c1	79 to 81

Compound	melting point [°C]
O=c1c2ccccc2nc(S)n1-c1ccc(Cl)cc1	336 to 338
Cc1cccc(C(CO)N2CCNCC2)c1 (centres undefined)	81 to 83
Cc1c(N)cccc1N1CCOC1=O	140 to 142
O=C(O)C1CCCCN1C(=O)c1ccccc1 (centres undefined)	128 to 130
O=C(O)CCNC(=O)CCC(=O)O	132 to 134
Nc1ccc(N2CCCCC2)c2ccncc12	149 to 151
COc1cc(C(=O)O)on1	145 to 147
Cc1ccc(NC(=O)C2CC2)cc1N	163 to 165
CC(C)CCNc1c(N)n(Cc2ccccc2)c(=O)[nH]c1=O	203 to 205
NNC(=O)Cc1ccc(F)cc1	129 to 131
O=C(CCl)NCc1ccc(F)cc1C(F)(F)F	95 to 97
Cc1csc(Nc2ccccc2)n1	74 to 76
O=C1COc2ccc(Cl)cc2N1	211 to 213
Cc1cc(NC(=O)CN2CCNCC2)no1	114 to 116
CC(C(=O)O)c1cc2ccccc2o1 (centres undefined)	91 to 93
O=C(O)c1nnn(-c2ccccc2)c1C1CC1	174 to 176
CCN(CC)S(=O)(=O)c1cccc(C(=O)O)c1	164 to 166
COc1ccc(Br)nc1C(F)(F)F	32 to 34
NC(=O)C1CCCN(C(=O)c2cc(Cl)ccc2N)C1 (centres undefined)	229 to 231
O=c1[nH]cnc2nc(N3CCOCC3)sc12	397 to 399
C#Cc1cccc(NCC(=O)N2CCOCC2)c1	185 to 187
NNC(=O)C1CCN(c2ncccn2)CC1	237 to 239
Clc1nccc(-n2cccn2)n1	118 to 120
NNC(=O)Cc1csc(N2CCOCC2)n1	168 to 170
